{
  "source": "ChEMBL document CHEMBL1129087",
  "about": "“Novel phosphotyrosine mimetics in the design of peptide ligands for pp60src SH2 domain” (Bioorg Med Chem Lett, 1996)",
  "key": {"[1]": {"target": "T1, Proto-oncogene tyrosine-protein kinase Src (Homo sapiens, UniProt P12931)", "T1 sequence (P12931 2-536 limits assumed)": "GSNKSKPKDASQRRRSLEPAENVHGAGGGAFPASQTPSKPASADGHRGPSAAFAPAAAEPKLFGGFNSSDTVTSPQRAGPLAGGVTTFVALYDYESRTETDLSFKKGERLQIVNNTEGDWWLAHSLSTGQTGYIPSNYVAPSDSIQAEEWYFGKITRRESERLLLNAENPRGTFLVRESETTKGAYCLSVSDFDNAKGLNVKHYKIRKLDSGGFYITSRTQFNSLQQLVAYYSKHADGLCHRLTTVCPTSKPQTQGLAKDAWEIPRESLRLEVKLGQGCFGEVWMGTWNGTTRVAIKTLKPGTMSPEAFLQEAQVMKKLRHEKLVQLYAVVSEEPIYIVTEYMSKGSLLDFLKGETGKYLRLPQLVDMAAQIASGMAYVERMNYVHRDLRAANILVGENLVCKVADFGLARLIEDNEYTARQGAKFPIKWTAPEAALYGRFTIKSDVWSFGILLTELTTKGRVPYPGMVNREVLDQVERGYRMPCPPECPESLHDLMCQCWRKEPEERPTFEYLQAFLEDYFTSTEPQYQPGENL", "assay": "Binding affinity to p60 src SH2 domain."}, "[2]": {"assay": "Inhibition of PLC(C) SH2 domain binding to PDGF receptor"}, "[3]": {"target": "T2, Tyrosine-protein phosphatase non-receptor type 11 (Homo sapiens, UniProt Q06124)", "T2 sequence (Q06124 whole entry)": "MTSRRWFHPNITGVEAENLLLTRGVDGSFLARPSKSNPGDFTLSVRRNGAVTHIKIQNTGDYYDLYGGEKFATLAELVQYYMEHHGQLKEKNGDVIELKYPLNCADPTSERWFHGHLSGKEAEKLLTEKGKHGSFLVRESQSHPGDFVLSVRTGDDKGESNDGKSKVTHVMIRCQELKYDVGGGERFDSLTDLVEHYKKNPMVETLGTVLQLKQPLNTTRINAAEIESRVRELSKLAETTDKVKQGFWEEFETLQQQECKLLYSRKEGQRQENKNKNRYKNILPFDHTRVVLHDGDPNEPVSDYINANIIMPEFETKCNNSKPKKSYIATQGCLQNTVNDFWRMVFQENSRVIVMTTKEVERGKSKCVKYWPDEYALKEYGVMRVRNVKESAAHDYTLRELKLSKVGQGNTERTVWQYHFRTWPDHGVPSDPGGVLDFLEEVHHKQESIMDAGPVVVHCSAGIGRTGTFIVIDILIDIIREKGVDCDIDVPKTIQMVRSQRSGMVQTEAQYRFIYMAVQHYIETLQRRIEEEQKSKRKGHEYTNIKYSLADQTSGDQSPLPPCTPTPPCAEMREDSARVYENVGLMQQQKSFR", "assay": "Inhibition of Syp(N) SH2 domain block binding to PDGF receptor"}, "[4]": {"target": "Tyrosine-protein kinase ABL1 (Homo sapiens, UniProt P00519)", "sequence (P00519 whole entry, the tested form may be a part)": "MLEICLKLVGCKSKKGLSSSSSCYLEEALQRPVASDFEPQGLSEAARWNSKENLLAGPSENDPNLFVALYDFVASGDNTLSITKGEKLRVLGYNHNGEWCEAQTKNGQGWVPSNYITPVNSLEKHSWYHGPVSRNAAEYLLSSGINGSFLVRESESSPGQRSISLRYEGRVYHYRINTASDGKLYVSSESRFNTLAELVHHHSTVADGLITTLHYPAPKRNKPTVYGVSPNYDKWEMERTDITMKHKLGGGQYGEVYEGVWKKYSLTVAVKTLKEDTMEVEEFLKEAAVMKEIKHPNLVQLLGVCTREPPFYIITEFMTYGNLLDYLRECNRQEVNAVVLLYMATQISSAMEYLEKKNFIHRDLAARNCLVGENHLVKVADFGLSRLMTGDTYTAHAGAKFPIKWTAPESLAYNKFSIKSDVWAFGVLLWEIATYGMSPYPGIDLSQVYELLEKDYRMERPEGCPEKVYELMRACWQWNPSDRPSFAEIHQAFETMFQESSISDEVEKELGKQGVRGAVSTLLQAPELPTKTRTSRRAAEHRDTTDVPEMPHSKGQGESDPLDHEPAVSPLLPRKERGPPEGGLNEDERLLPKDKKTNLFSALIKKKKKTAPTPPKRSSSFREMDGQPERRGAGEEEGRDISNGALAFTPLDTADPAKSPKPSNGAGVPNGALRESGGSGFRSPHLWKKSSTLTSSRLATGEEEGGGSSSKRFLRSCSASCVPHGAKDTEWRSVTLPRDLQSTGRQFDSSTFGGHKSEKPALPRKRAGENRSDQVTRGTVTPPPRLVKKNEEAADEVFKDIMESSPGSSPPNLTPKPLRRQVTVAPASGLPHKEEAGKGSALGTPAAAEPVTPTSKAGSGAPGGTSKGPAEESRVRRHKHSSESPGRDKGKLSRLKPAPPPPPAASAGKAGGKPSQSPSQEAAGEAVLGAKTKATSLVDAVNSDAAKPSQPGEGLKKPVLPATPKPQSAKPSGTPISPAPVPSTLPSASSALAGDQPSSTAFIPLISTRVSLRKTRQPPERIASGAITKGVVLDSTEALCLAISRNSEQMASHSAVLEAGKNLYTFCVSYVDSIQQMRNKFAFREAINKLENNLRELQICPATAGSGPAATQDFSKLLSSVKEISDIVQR", "assay": "Inhibition of Abl SH2 domain binding PDGF receptor"}, "[5]": {"target": "Growth factor receptor-bound protein 2 (Homo sapiens) (UniProt P62993)", "sequence (P62993 whole entry, looked up, the tested form may be a part)": "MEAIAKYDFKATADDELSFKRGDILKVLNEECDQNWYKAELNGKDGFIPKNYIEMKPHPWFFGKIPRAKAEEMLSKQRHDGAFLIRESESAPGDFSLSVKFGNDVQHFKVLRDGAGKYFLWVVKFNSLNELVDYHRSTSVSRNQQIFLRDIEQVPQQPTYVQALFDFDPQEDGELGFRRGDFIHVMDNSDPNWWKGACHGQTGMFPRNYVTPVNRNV", "assay": "Inhibition of Grb2 SH2 domain binding to PDGF receptor 100 uM"}, "[6]": {"target": "Growth factor receptor-bound protein 2 (Homo sapiens) (UniProt P62993)", "assay": "Inhibition of Grb2 SH2 domain binding to PDGF receptor"}, "[7]": {"target": "T1, Proto-oncogene tyrosine-protein kinase Src", "assay": "Inhibition of src SH2 domain binding to PDGF receptor"}},
  "data": [
    {"smiles": "CC[C@H](C)[C@H](NC(=O)[C@H](CCC(=O)O)NC(=O)[C@H](CCC(=O)O)NC(=O)/C=C/c1ccc(OP(=O)(O)O)cc1)C(=O)N[C@@H](CCC(=O)O)C(=O)O", "values": [
      {"measurement": "IC50", "setting": "[1]", "value": 5.5, "unit": "µM"}
    ]},
    {"smiles": "CC[C@H](C)[C@H](NC(=O)[C@H](CCC(=O)O)NC(=O)[C@H](CCC(=O)O)NC(=O)/C(=C/c1ccc(OP(=O)(O)O)cc1)C(=O)O)C(=O)N[C@@H](CCC(=O)O)C(=O)O", "values": [
      {"measurement": "IC50", "setting": "[1]", "value": 5, "unit": "µM"}
    ]},
    {"smiles": "Cc1cc(OP(=O)(O)O)cc(C)c1CCC(=O)NC(CCC(=O)O)C(=O)N[C@@H](Cc1c[nH]c2ccccc12)C(N)=O", "note": "(some centres not stated)", "values": [
      {"measurement": "IC50", "setting": "[1]", "value": 30, "unit": "µM"}
    ]},
    {"smiles": "C[C@H](Cc1ccc(OP(=O)(O)O)cc1)C(=O)NC(CCC(=O)O)C(=O)N[C@@H](Cc1c[nH]c2ccccc12)C(N)=O", "note": "(some centres not stated)", "values": [
      {"measurement": "IC50", "setting": "[1]", "value": 13.4, "unit": "µM"}
    ]},
    {"smiles": "CC[C@H](C)[C@H](NC(=O)C(CCC(=O)O)NC(=O)C(CCC(=O)O)NC(=O)C(Cc1ccc(OP(=O)(O)O)cc1)c1cccc(O)c1)C(=O)N[C@@H](CCC(=O)O)C(=O)O", "note": "(single isomer, unassigned; isomer 1)", "values": [
      {"measurement": "IC50", "setting": "[1]", "value": 2.1, "unit": "µM"}
    ]},
    {"smiles": "CC[C@H](C)[C@H](NC(=O)[C@H](CCC(=O)O)NC(=O)[C@H](CCC(=O)O)NC(=O)C(Cc1ccc(OP(=O)(O)O)cc1)c1ccc2ccccc2c1)C(=O)N[C@@H](CCC(=O)O)C(=O)O", "note": "(stereo in doubt)", "values": [
      {"measurement": "IC50", "setting": "[1]", "value": 2.8, "unit": "µM"}
    ]},
    {"smiles": "CC[C@H](C)[C@H](NC(=O)[C@H](CCC(=O)O)NC(=O)[C@H](CCC(=O)O)NC(=O)C(Cc1ccc(OP(=O)(O)O)cc1)c1ccccc1)C(=O)N[C@@H](CCC(=O)O)C(=O)O", "note": "(single isomer, unassigned; isomer 2)", "values": [
      {"measurement": "IC50", "setting": "[1]", "value": 9.3, "unit": "µM"}
    ]},
    {"smiles": "CC[C@H](C)[C@H](NC(=O)[C@H](CCC(=O)O)NC(=O)[C@H](CCC(=O)O)NC(=O)C(Cc1ccc(OP(=O)(O)O)cc1)c1ccc2ccccc2c1)C(=O)N[C@@H](CCC(=O)O)C(=O)O", "note": "(single isomer, unassigned; isomer 2)", "values": [
      {"measurement": "IC50", "setting": "[1]", "value": 4.5, "unit": "µM"}
    ]},
    {"smiles": "CC[C@H](C)[C@H](NC(=O)[C@H](CCC(=O)O)NC(=O)[C@H](CCC(=O)O)NC(=O)C(Cc1ccc(OP(=O)(O)O)cc1)c1cccc2ccccc12)C(=O)N[C@@H](CCC(=O)O)C(=O)O", "note": "(stereo in doubt; form 1)", "values": [
      {"measurement": "IC50", "setting": "[1]", "value": 7.3, "unit": "µM"}
    ]},
    {"smiles": "CC(=O)N[C@@H](Cc1ccc(OP(=O)(O)O)cc1)C(=O)NC(CCC(=O)O)C(=O)N[C@@H](Cc1c[nH]c2ccccc12)C(N)=O", "note": "(some centres not stated)", "values": [
      {"measurement": "IC50", "setting": "[1]", "value": 4, "unit": "µM"}
    ]},
    {"smiles": "NC(=O)[C@H](Cc1c[nH]c2ccccc12)NC(=O)C(CCC(=O)O)NC(=O)C(Cc1ccc(OP(=O)(O)O)cc1)c1ccccc1", "note": "(some centres not stated)", "values": [
      {"measurement": "IC50", "setting": "[1]", "value": 28, "unit": "µM"}
    ]},
    {"smiles": "CC[C@H](C)[C@H](NC(=O)C(CCC(=O)O)NC(=O)C(CCC(=O)O)NC(=O)C(Cc1ccc(OP(=O)(O)O)cc1)c1cccc(O)c1)C(=O)N[C@@H](CCC(=O)O)C(=O)O", "note": "(stereo in doubt)", "values": [
      {"measurement": "IC50", "setting": "[1]", "value": 3.3, "unit": "µM"}
    ]},
    {"smiles": "CC[C@H](C)[C@H](NC(=O)[C@H](CCC(=O)O)NC(=O)[C@H](CCC(=O)O)NC(=O)CCc1c(C)cc(OP(=O)(O)O)cc1C)C(=O)N[C@@H](CCC(=O)O)C(=O)O", "values": [
      {"measurement": "IC50", "setting": "[1]", "value": 4.5, "unit": "µM"}
    ]},
    {"smiles": "NC(=O)[C@H](Cc1c[nH]c2ccccc12)NC(=O)C(CCC(=O)O)NC(=O)CCc1ccc(OP(=O)(O)O)cc1", "note": "(some centres not stated)", "values": [
      {"measurement": "IC50", "setting": "[1]", "value": 21.3, "unit": "µM"}
    ]},
    {"smiles": "CC[C@H](C)[C@H](NC(=O)[C@H](CCC(=O)O)NC(=O)[C@H](CCC(=O)O)NC(=O)[C@@H](Cc1ccc(OP(=O)(O)O)cc1)NC(C)=O)C(=O)N[C@@H](CCC(=O)O)C(=O)O", "values": [
      {"measurement": "IC50", "setting": "[2]", "value": "> 100", "unit": "µM"},
      {"measurement": "IC50", "setting": "[3]", "value": "> 100", "unit": "µM"},
      {"measurement": "IC50", "setting": "[4]", "value": 15.3, "unit": "µM"},
      {"measurement": "inhibition", "setting": "[5]", "value": 45.2, "unit": "%"}
    ]},
    {"smiles": "CC[C@H](C)[C@H](NC(=O)[C@H](CCC(=O)O)NC(=O)[C@H](CCC(=O)O)NC(=O)[C@H](C)Cc1ccc(OP(=O)(O)O)cc1)C(=O)N[C@@H](CCC(=O)O)C(=O)O", "values": [
      {"measurement": "IC50", "setting": "[1]", "value": 20, "unit": "µM"}
    ]},
    {"smiles": "CC[C@H](C)[C@H](NC(=O)[C@H](CCC(=O)O)NC(=O)[C@H](CCC(=O)O)NC(=O)C(Cc1ccc(OP(=O)(O)O)cc1)c1cccc2ccccc12)C(=O)N[C@@H](CCC(=O)O)C(=O)O", "note": "(stereo in doubt; form 2)", "values": [
      {"measurement": "IC50", "setting": "[1]", "value": 2.6, "unit": "µM"}
    ]},
    {"smiles": "NC(=O)[C@H](Cc1c[nH]c2ccccc12)NC(=O)C(CCC(=O)O)NC(=O)C(Cc1ccc(OP(=O)(O)O)cc1)c1cccc2ccccc12", "note": "(some centres not stated)", "values": [
      {"measurement": "IC50", "setting": "[1]", "value": 30, "unit": "µM"}
    ]},
    {"smiles": "CC[C@H](C)[C@H](NC(=O)[C@H](CCC(=O)O)NC(=O)[C@H](CCC(=O)O)NC(=O)C(Cc1ccc(OP(=O)(O)O)cc1)c1ccccc1)C(=O)N[C@@H](CCC(=O)O)C(=O)O", "note": "(stereo in doubt) [listing 1 of 2 here]", "values": [
      {"measurement": "IC50", "setting": "[6]", "value": "> 100", "unit": "µM"}
    ]},
    {"smiles": "NC(=O)[C@H](Cc1c[nH]c2ccccc12)NC(=O)C(CCC(=O)O)NC(=O)C(Cc1ccc(OP(=O)(O)O)cc1)c1ccc2ccccc2c1", "note": "(some centres not stated)", "values": [
      {"measurement": "IC50", "setting": "[1]", "value": 40, "unit": "µM"}
    ]},
    {"smiles": "CC[C@H](C)[C@H](NC(=O)[C@H](CCC(=O)O)NC(=O)[C@H](CCC(=O)O)NC(=O)C(Cc1ccc(OP(=O)(O)O)cc1)c1ccccc1)C(=O)N[C@@H](CCC(=O)O)C(=O)O", "note": "(stereo in doubt) [listing 2 of 2 here]", "values": [
      {"measurement": "IC50", "setting": "[2]", "value": "> 100", "unit": "µM"},
      {"measurement": "IC50", "setting": "[3]", "value": "> 100", "unit": "µM"},
      {"measurement": "IC50", "setting": "[1]", "value": 1.9, "unit": "µM"},
      {"measurement": "IC50", "setting": "[4]", "value": "> 100", "unit": "µM"},
      {"measurement": "IC50", "setting": "[7]", "value": 7.35, "unit": "µM"}
    ]},
    {"smiles": "CC[C@H](C)[C@H](NC(=O)[C@H](CCC(=O)O)NC(=O)[C@H](CCC(=O)O)NC(=O)C(Cc1ccc(OP(=O)(O)O)cc1)c1ccccc1O)C(=O)N[C@@H](CCC(=O)O)C(=O)O", "note": "(some centres not stated)", "values": [
      {"measurement": "IC50", "setting": "[1]", "value": 1.4, "unit": "µM"}
    ]},
    {"smiles": "NC(=O)[C@H](Cc1c[nH]c2ccccc12)NC(=O)C(CCC(=O)O)NC(=O)/C=C/c1ccc(OP(=O)(O)O)cc1", "note": "(some centres not stated)", "values": [
      {"measurement": "IC50", "setting": "[1]", "value": 30, "unit": "µM"}
    ]},
    {"smiles": "CC[C@H](C)[C@H](NC(=O)[C@H](CCC(=O)O)NC(=O)[C@H](CCC(=O)O)NC(=O)[C@@H](CC(=O)O)Cc1ccc(OP(=O)(O)O)cc1)C(=O)N[C@@H](CCC(=O)O)C(=O)O", "values": [
      {"measurement": "IC50", "setting": "[1]", "value": 0.35, "unit": "µM"}
    ]},
    {"smiles": "CC[C@H](C)[C@H](NC(=O)[C@H](CCC(=O)O)NC(=O)[C@H](CCC(=O)O)NC(=O)CCc1ccc(OP(=O)(O)O)cc1)C(=O)N[C@@H](CCC(=O)O)C(=O)O", "values": [
      {"measurement": "IC50", "setting": "[1]", "value": 3.4, "unit": "µM"}
    ]}
  ]
}
